Measured values from the NIST ThermoML archive (doi:10.1016/j.jct.2017.07.014).
Numbers after ± are expanded uncertainties.

Key:
[1] = molar heat capacity at constant pressure; xn = mol fraction of the nth substance listed; details: 102.6 kPa, Liquid, Large sample (1 g) DSC, x1 = 0.107
[2] = refractive index (other wavelength) (dimensionless); xn = mol fraction of the nth substance listed; details: 108 kPa, Liquid, Wavelength=632.8 nm, minimum deviation method

CCCCn1cc[n+](C)c1.F[P-](F)(F)(F)(F)F [1-butyl-3-methylimidazolium hexafluorophosphate] + CCO
[1]
Details	molar heat capacity at constant pressure [J/K/mol]
314.31 K	176.72 ± 3
314.64 K	177.08 ± 3
314.97 K	177.44 ± 3.1
315.29 K	177.86 ± 3.1
315.62 K	178.15 ± 3.1
315.94 K	178.8 ± 3.1
316.27 K	179.08 ± 3.1
316.59 K	179.58 ± 3.1
316.92 K	179.87 ± 3.1
317.24 K	180.44 ± 3.1
317.57 K	180.87 ± 3.1
317.89 K	181.23 ± 3.1
318.22 K	181.8 ± 3.1
318.55 K	182.3 ± 3.1
318.87 K	182.66 ± 3.1
319.19 K	183.3 ± 3.1
319.52 K	183.87 ± 3.1
319.85 K	184.38 ± 3.1
320.17 K	184.88 ± 3.1
320.5 K	185.38 ± 3.1
320.82 K	186.02 ± 3.1
321.15 K	186.45 ± 3.1
321.47 K	187.09 ± 3.1
321.8 K	187.95 ± 3.1
322.12 K	188.6 ± 3.1
322.45 K	189.38 ± 3.2
322.77 K	190.17 ± 3.2
323.1 K	190.89 ± 3.2
323.42 K	191.96 ± 3.2
323.75 K	192.96 ± 3.2
324.07 K	194.61 ± 3.3
324.4 K	195.89 ± 3.3
324.73 K	198.26 ± 3.5
325.05 K	201.76 ± 3.6
325.38 K	205.34 ± 3.8
325.7 K	210.28 ± 5.2
326.03 K	181.08 ± 5.9
326.35 K	178.08 ± 3.1
326.68 K	176.79 ± 3.1
327 K	175.93 ± 3.1
327.33 K	175.36 ± 3.1
327.65 K	174.93 ± 3.1
327.98 K	174.57 ± 3.1
328.31 K	174.36 ± 3.1
328.63 K	174.29 ± 3.1
328.96 K	174.07 ± 3.1
329.28 K	173.93 ± 3.1
329.61 K	173.79 ± 3.1
329.93 K	173.72 ± 3.1
330.26 K	173.64 ± 3.1
330.58 K	173.57 ± 3.1
330.91 K	173.5 ± 3.1
331.23 K	173.43 ± 3.1
331.56 K	173.43 ± 3.1
331.88 K	173.43 ± 3.1
332.21 K	173.43 ± 3.1
332.53 K	173.29 ± 3.1
332.86 K	173.43 ± 3.1
333.19 K	173.43 ± 3.1
333.51 K	173.43 ± 3.1
333.84 K	173.36 ± 3.1
334.16 K	173.5 ± 3.1
334.49 K	173.57 ± 3.1
334.81 K	173.72 ± 3.1
335.14 K	173.86 ± 3.1
335.46 K	174.22 ± 3.1
335.78 K	173.72 ± 3.1
336.09 K	173.29 ± 3.1
336.38 K	173.07 ± 3.1
336.76 K	172.93 ± 3.1
337.09 K	172.79 ± 3.1
337.41 K	173.5 ± 3.1
337.74 K	174.07 ± 3.1
338.06 K	174.07 ± 3.1
338.39 K	174.14 ± 3.1
338.72 K	174.43 ± 3.1
339.05 K	174.22 ± 3.1
339.35 K	174.07 ± 3.1
339.69 K	174.72 ± 3.1
340.04 K	174.72 ± 3.1
340.35 K	175.07 ± 3.1
340.66 K	175.58 ± 3.1
340.99 K	175.29 ± 3.1
341.32 K	175.07 ± 3.1
341.64 K	175 ± 3.1
341.98 K	175.29 ± 3.1
342.3 K	174.93 ± 3.1
342.6 K	175.58 ± 3.1
342.93 K	175.43 ± 3.1
343.26 K	175.79 ± 3.1
343.6 K	175.65 ± 3.1
343.91 K	175.72 ± 3.1
344.24 K	175.72 ± 3.1
344.56 K	175.79 ± 3.1
344.9 K	175.86 ± 3.1
345.21 K	176.08 ± 3.1
345.55 K	175.93 ± 3.1
345.87 K	175.86 ± 3.1
346.19 K	176.15 ± 3.1
346.54 K	176.65 ± 3.1
346.86 K	176.43 ± 3.1
347.17 K	177.08 ± 3.1
347.51 K	176.72 ± 3.1
347.82 K	176.65 ± 3.1
348.15 K	176.79 ± 3.1

[2]
Details	refractive index
315.21 K, x1 = 1	1.4038 ± 0.0003
317.26 K, x1 = 1	1.4032 ± 0.0003
319.23 K, x1 = 1	1.4027 ± 0.0003
320.24 K, x1 = 0.3	1.3841 ± 0.0002
320.24 K, x1 = 0.4	1.3889 ± 0.0002
320.24 K, x1 = 0.901	1.4008 ± 0.0003
320.25 K, x1 = 0.6	1.3951 ± 0.0003
320.25 K, x1 = 0.7	1.3973 ± 0.0003
320.26 K, x1 = 0.801	1.3992 ± 0.0003
320.27 K, x1 = 0.5	1.3923 ± 0.0002
321.27 K, x1 = 0.3	1.3838 ± 0.0003
321.27 K, x1 = 0.801	1.3989 ± 0.0003
321.27 K, x1 = 0.901	1.4005 ± 0.0003
321.28 K, x1 = 0.7	1.3971 ± 0.0003
321.29 K, x1 = 0.4	1.3886 ± 0.0002
321.29 K, x1 = 0.6	1.3949 ± 0.0003
321.35 K, x1 = 0.5	1.392 ± 0.0002
321.47 K, x1 = 1	1.4021 ± 0.0003
322.24 K, x1 = 0.3	1.3835 ± 0.0002
322.27 K, x1 = 0.7	1.3968 ± 0.0003
322.27 K, x1 = 0.901	1.4002 ± 0.0003
322.29 K, x1 = 0.4	1.3884 ± 0.0002
322.29 K, x1 = 0.5	1.3918 ± 0.0002
322.29 K, x1 = 0.6	1.3945 ± 0.0003
322.29 K, x1 = 0.801	1.3987 ± 0.0003
323.24 K, x1 = 0.901	1.4 ± 0.0003
323.25 K, x1 = 0.3	1.3832 ± 0.0002
323.27 K, x1 = 0.5	1.3915 ± 0.0002
323.28 K, x1 = 0.801	1.3984 ± 0.0003
323.3 K, x1 = 0.4	1.388 ± 0.0002
323.3 K, x1 = 0.6	1.3943 ± 0.0003
323.3 K, x1 = 0.7	1.3965 ± 0.0003
323.47 K, x1 = 1	1.4016 ± 0.0003
323.58 K, x1 = 0.2	1.3759 ± 0.0003
324.23 K, x1 = 0.801	1.3981 ± 0.0003
324.23 K, x1 = 0.901	1.3997 ± 0.0003
324.24 K, x1 = 0.7	1.3962 ± 0.0003
324.26 K, x1 = 0.3	1.3828 ± 0.0002
324.28 K, x1 = 0.4	1.3877 ± 0.0002
324.28 K, x1 = 0.6	1.394 ± 0.0003
324.3 K, x1 = 0.5	1.3912 ± 0.0002
324.56 K, x1 = 0.2	1.3756 ± 0.0003
325.26 K, x1 = 0.801	1.3979 ± 0.0003
325.28 K, x1 = 0.4	1.3874 ± 0.0002
325.28 K, x1 = 0.6	1.3938 ± 0.0003
325.31 K, x1 = 0.3	1.3825 ± 0.0002
325.31 K, x1 = 0.901	1.3994 ± 0.0003
325.32 K, x1 = 0.7	1.396 ± 0.0003
325.34 K, x1 = 0.5	1.3909 ± 0.0002
325.4 K, x1 = 1	1.4011 ± 0.0003
325.42 K, x1 = 0.1	1.3647 ± 0.0004
325.63 K, x1 = 0.2	1.3753 ± 0.0003
326.48 K, x1 = 0.4	1.387 ± 0.0002
326.51 K, x1 = 0.3	1.3822 ± 0.0002
326.58 K, x1 = 0.801	1.3975 ± 0.0003
326.59 K, x1 = 0.901	1.3991 ± 0.0003
326.6 K, x1 = 0.5	1.3905 ± 0.0002
326.6 K, x1 = 0.6	1.3934 ± 0.0003
326.61 K, x1 = 0.7	1.3956 ± 0.0003
326.64 K, x1 = 0.1	1.3643 ± 0.0003
327.05 K, x1 = 0.2	1.3748 ± 0.0003
327.64 K, x1 = 0.4	1.3867 ± 0.0002
327.65 K, x1 = 0.5	1.3902 ± 0.0002
327.67 K, x1 = 0.6	1.3931 ± 0.0003
327.73 K, x1 = 0.7	1.3953 ± 0.0003
327.75 K, x1 = 0.3	1.3817 ± 0.0002
327.86 K, x1 = 0.1	1.3639 ± 0.0003
327.91 K, x1 = 0.901	1.3987 ± 0.0003
327.93 K, x1 = 0.801	1.3972 ± 0.0003
328.27 K, x1 = 0.2	1.3744 ± 0.0003
328.91 K, x1 = 0.1	1.3636 ± 0.0003
329.44 K, x1 = 0.1	1.3634 ± 0.0003
